Where “and” joins values, the source holds several entries; their conditions need not be identical. Equal values may be shown once. Read-outs that look alike come from different tables or passages of the source. One block for each molecule: values may come before it. Where no end group is shown, it is not given here. [ ]: non-standard residue; d: D form. The star is where a group is joined. FITC = O=C1OC2(c3ccc(O)cc3Oc3cc(O)ccc32)c2ccc(NC(=S)*)cc21; Ahx = NCCCCCC(=O)O
Key:
[1] = biological target: T1, GST-Bcl-B (Homo sapiens, UniProt Q9HD36); experiment: Bcl-B/FITC-TR3-r8 fluorescence polarization competition (displacement) assay, HTS and dose-response; details: for Bcl-B H Coefficient: Hill coefficient of Bcl-B dose-response curve
T1 sequence (Q9HD36 1-182 limits assumed): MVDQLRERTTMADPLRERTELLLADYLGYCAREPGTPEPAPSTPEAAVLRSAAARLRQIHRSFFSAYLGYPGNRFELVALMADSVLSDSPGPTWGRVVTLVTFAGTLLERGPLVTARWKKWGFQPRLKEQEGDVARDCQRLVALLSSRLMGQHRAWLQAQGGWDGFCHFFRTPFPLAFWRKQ

[2] = biological target: T1, GST-Bcl-B; experiment: biochemical
[3] = biological target: GST-Bcl-2 (Homo sapiens, UniProt P10415); experiment: biochemical
[4] = tested on: HeLa Tet-On-Bcl-B (HTO2) cells; experiment: Cell viability (ATPlite) in HeLa Tet-On-Bcl-B cells with or without doxycycline; assay type: cell-based; details: for IC50: Homo sapiens, HeLa, 24 h, read-out: concentration required to reduce HeLa Tet-On-Bcl-B cell viability by 50%
Method: (§1) FIG. 24A is a photograph of a blot wherein HeLa Tet-On (HTO1) and HeLa Tet-On-Bcl-B (HTO2) cells were treated with or without doxycycline (dox) for 24 h to induce their tetracycline-responsive promoters. Protein lysates were collected, and immunoblotting was used to analyze Bcl-B and Hsc70 (for loading control) expression. In FIG. 24B the cells were treated with or without doxycycline for 24 h, and then with staurosporine at the indicated concentrations for 24 h. Cell viability was measured using ATPlite. In FIG. 24C HeLa Tet-On-Bcl-B (HTO2) cells were treated with or without doxacycline as above. Compounds were then added at the indicated concentrations, and cell viability was measured 24 h later using ATPlite. The data shown represent mean±standard deviation (n=3).
HeLa Tet-On-Bcl-B cells were generated by stably transfecting the HeLa Tet-On cell line (Clontech, Mountain View, Calif.) with a pTRE2hyg vector (Clontech) containing the Bcl-B gene, using lipofectAMINE PLUS (Invitrogen, Carlsbad, Calif.). Briefly, cells were seeded overnight and transfected at 50% confluency for 3 h. After 24 h, the cells were re-seeded at <10% confluence and cultured in media (DMEM with 10% Tet System Approved FBS (Clontech)) containing G418 (100 μg/mL) and hygromycin B (300 μg/mL) for pTet-On and pTRE2hyg/Bcl-B plasmid maintenance, respectively. Positive foci resistant to both antibiotics were expanded. Colonies were then cultured in the presence or absence of doxycycline (Clontech, 1 μg/mL) for 16 h, and induced Bcl-B expression was confirmed by Western blot analysis. A previously developed polyclonal Bcl-B antibody^17 and an Hsc70 antibody (for protein concentration comparison; Santa Cruz Biotechnology, Santa Cruz, Calif.) were used.
(§2) Cells were seeded in 96-well plates at 5,000 cells/well in 100 μL of growth medium and allowed to incubate for 24 h. Afterwards, cells were incubated in the presence or absence of doxycycline (1 μg/mL) for another 24 h (to induce Bcl-B expression). Compounds were then added, as indicated, in a volume of 5 μL. The next day, cell viability was measured using the ATPlite Luminescence ATP Detection System (PerkinElmer, Waltham, Mass.) according to the manufacturer's specifications.

[5] = biological target: T1, GST-Bcl-B; experiment: FITC-Puma-BH3/GST-Bcl-B fluorescence polarization displacement assay; assay type: binding; set-up: their C-terminal transmembrane domains (˜20 amino acids) were deleted to enhance protein solubility; made in house; host or cells: E. coli (BL21 Star (DE3); XL-1 Blue), pGEX-4T-1; details: FIG. 23C; result in words
[6] = biological target: T1, GST-Bcl-B; experiment: 1D 1H-NMR compound binding, GST-Bcl-B; set-up: their C-terminal transmembrane domains (˜20 amino acids) were deleted to enhance protein solubility; made in house; host or cells: E. coli (BL21 Star (DE3); XL-1 Blue), pGEX-4T-1; details: result in words
Method: (§3) FIGS. 22A-22F are line graphs showing a ^1H-NMR spectra confirmation of compound binding to Bcl-B. Compounds 5804000, 5954623, and 2011727 were diluted in PBS/D2O buffer to 1000 μM, then incubated with either GST (FIGS. 22A, C, E) or GST-Bcl-B (FIGS. 22B, D, F) at 0, 10 or 20 μM concentrations. FIGS. 22A-B show compound 5804000; FIGS. 22C-D show compound 5954623; and FIGS. 22E-F show the NMR spectra for the negative control compound 2011727. The most prominent peak shift for each compound is shown.
(§4) NMR experiments were performed at 25° C. on a 500 MHz Bruker Avance spectrometer (Bruker, Madison, Wis.) equipped with a 5 mm TXI probe. […] Reference solutions were then used in titration experiments with GST-Bcl-B or GST. All ^1H NMR spectra were obtained with the carrier position set to the water peak signal using WATERGATE. NMR data were processed and analyzed with MestRe Nova (MestReLab Research, Santiago de Compostela, Spain).

[7] = biological target: T2, GST (Schistosoma japonicum, UniProt P08515); experiment: 1D 1H-NMR compound binding, GST negative control; details: negative control protein; result in words
T2 construct: made in house; host or cells: Escherichia coli BL21 Star (DE3), pGEX-4T-1
Method: as §3, §4

[8] = biological target: T1, GST-Bcl-B; experiment: FITC-Bim-BH3/GST-Bcl-B fluorescence polarization displacement assay; assay type: binding; set-up: their C-terminal transmembrane domains (˜20 amino acids) were deleted to enhance protein solubility; made in house; host or cells: E. coli (BL21 Star (DE3); XL-1 Blue), pGEX-4T-1; details: FIG. 23D; result in words
[9] = tested on: HeLa Tet-On (HTO1) cells; experiment: Cell viability (ATPlite) in control HeLa Tet-On cells; assay type: cell-based; details: cells do not express Bcl-B; result in words
Method: as §1, §2

[10] = biological target: GST-Bcl-B ΔTM [GST: P08515]; experiment: fluorescence polarization, 20 nM FITC-TR3-r8 with increasing GST-Bcl-B
[11] = biological target: GST-Bcl-B ΔTM [GST: P08515]; experiment: fluorescence polarization, 20 nM FITC-TR3-r8 with increasing GST-Bcl-B, HEPES/β-glycerophosphate buffer
[12] = biological target: GST-Bcl-2 ΔTM [GST: P08515]; experiment: fluorescence polarization, direct binding to GST-Bcl-2
[13] = biological target: GST-Bcl-B ΔTM [GST: P08515]; experiment: fluorescence polarization binding curves
[14] = biological target: GST-Bfl-1 ΔTM [GST: P08515]; experiment: Bfl-1 FPA plate, well F12: FITC-BH3 and GST-Bfl-1 without compound
[15] = biological target: GST-Bfl-1 ΔTM [GST: P08515]; experiment: Bfl-1 FPA plate, well D12: FITC-BH3 and GST-Bfl-1 without compound
[16] = biological target: T3, GST (glutathione S-transferase control protein) (UniProt P08515 1-218 = GST); experiment: fluorescence polarization, 5 nM FITC-Bid BH3 with various concentrations of GST
T3 construct: Negative control protein; also called control GST protein

[17] = biological target: GST-Bfl-1 ΔTM [GST: P08515]; experiment: Bfl-1 FPA plate, well C12: FITC-BH3 and GST-Bfl-1 without compound
[18] = biological target: GST-Bfl-1 ΔTM [GST: P08515]; experiment: Bfl-1 FPA plate, well A12: FITC-BH3 and GST-Bfl-1 without compound (peptide-alone wells 43-52 mP)
[19] = biological target: GST-Bfl-1 ΔTM [GST: P08515]; experiment: Bfl-1 FPA plate, well H12: FITC-BH3 and GST-Bfl-1 without compound
[20] = biological target: GST-Bfl-1 ΔTM [GST: P08515]; experiment: Bfl-1 FPA plate, well E12: FITC-BH3 and GST-Bfl-1 without compound
[21] = biological target: GST-Bfl-1 ΔTM [GST: P08515]; experiment: Bfl-1 FPA plate, well G12: FITC-BH3 and GST-Bfl-1 without compound
[22] = biological target: GST-Bfl-1 ΔTM [GST: P08515]; experiment: Bfl-1 FPA plate, well B12: FITC-BH3 and GST-Bfl-1 without compound

Chain of GST-Bcl-2 (P10415 1-218 limits assumed): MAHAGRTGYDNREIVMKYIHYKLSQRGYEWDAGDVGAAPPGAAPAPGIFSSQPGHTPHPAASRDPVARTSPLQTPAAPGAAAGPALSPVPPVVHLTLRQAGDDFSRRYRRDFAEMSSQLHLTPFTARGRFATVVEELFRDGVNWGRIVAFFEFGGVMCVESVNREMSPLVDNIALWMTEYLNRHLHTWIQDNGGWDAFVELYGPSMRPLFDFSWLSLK
T2 sequence (P08515 whole entry): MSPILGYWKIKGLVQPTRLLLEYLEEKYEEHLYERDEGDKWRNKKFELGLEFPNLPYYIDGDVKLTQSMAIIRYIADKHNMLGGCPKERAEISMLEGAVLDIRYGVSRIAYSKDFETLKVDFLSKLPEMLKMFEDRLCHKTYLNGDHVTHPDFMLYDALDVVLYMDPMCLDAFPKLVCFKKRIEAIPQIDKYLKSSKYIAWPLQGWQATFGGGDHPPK
T3 sequence (P08515 whole entry): as above

Molecule: O=C(O)Cc1c[nH]c2ccc(O)cc12 [Compound 5106705]
Bcl-B H Coefficient [1]: 3.385
IC50 [2]: 7.88 µM and 7.84 µM
IC50 [3]: 9.83 µM and 9.78 µM

Molecule: O=S(=O)(O)c1cccc2cccc(Nc3ccccc3)c12 [Compound 5255876]
IC50 ([1]; Bcl-B IC50 (g/L)): 2.94 µM
IC50 ([1]; Bcl-B IC50 (uM)): 2.95 µM
Bcl-B H Coefficient [1]: 2.628
IC50 [3]: 12.6 µM

Molecule: CN[C@@H]1C[C@H]2O[C@@](C)([C@@H]1OC)n1c3ccccc3c3c4c(c5c6ccccc6n2c5c31)C(=O)NC4 [staurosporine]
effect of doxycycline-induced Bcl-B expression on compound-induced cell death ([4]; result in words): more resistant to staurosporine-induced cell death
effect of doxycycline on compound-induced cell death in control cells [9]: the same level of staurosporine-induced cell death whether or not doxycycline was added

Continued, in another order:

EC50 [1]: 5.6 µM
Bcl-B H Coefficient [1]: 1.599
IC50 ([4]; in the absence of Bcl-B (without doxycycline)): ~148 µM
IC50 ([4]; in the presence of Bcl-B (with doxycycline)): ~226 µM
displacement of FITC-Puma-BH3 from GST-Bcl-B [5]: did not
IC50 [2]: 11.3 µM
binding to GST by 1D-NMR [7]: did not bind to GST
displacement of FITC-Bim-BH3 from GST-Bcl-B [8]: did not
Molecule: Cc1cc(C)nc(NC(=N)Nc2cccc(N)c2)n1 [Compound 5804000]
binding to GST-Bcl-B by 1D-NMR [6]: bound to GST-Bcl-B in a concentration dependent manner

EC50 [1]: 2.1 µM
Bcl-B H Coefficient [1]: 1.233
displacement of FITC-Puma-BH3 from GST-Bcl-B [5]: displaced FITC-Puma-BH3
IC50 [2]: 15.6 µM and 16.3 µM
binding to GST by 1D-NMR [7]: did not bind to GST
displacement of FITC-Bim-BH3 from GST-Bcl-B [8]: displaced FITC-Bim-BH3
Molecule: Cc1ccc(C)n1-c1ccc(Br)cc1C(=O)O [Compound 5954623]
binding to GST-Bcl-B by 1D-NMR [6]: bound to GST-Bcl-B in a concentration dependent manner

Kd [10]: 0.02 µM
Kd [11]: 0.02 µM
Kd [12]: < 0.1 µM
fold increase of affinity in HβG buffer against PBS buffer [13]: 5 to 10 fold
Molecule: {FITC-Ahx}-FSRSLHSLLG[Ahx][dR][dR][dR][dR][dR][dR][dR][dR] [FITC-TR3-9-r8]

fluorescence polarization (mP) [14]: 163 mP
fluorescence polarization (mP) [15]: 158 mP
binding result [16]: no binding
fluorescence polarization (mP) [17]: 166 mP
fluorescence polarization (mP) [18]: 148 mP
fluorescence polarization (mP) [19]: 163 mP
fluorescence polarization (mP) [20]: 157 mP
fluorescence polarization (mP) [21]: 155 mP
fluorescence polarization (mP) [22]: 160 mP
Molecule: {FITC-Ahx}-EDIIRNIARHLAQVGDSMDR-NH2 (also called FITC-BH3 peptide; FITC-BH3) [FITC-Bid BH3 peptide]

Source: US20090118135A1, “METHODS AND COMPOUNDS FOR REGULATING APOPTOSIS” (The Burnham Institute, priority 2007, published 2009)
